Assay results: patent US4596873A, “1,4,5,6,7,8-Hexahydro-2-alkyl-4-aryl-5-oxo-1,7-naphthyridine-3-carboxyl ic acid aromatic esters and pharmaceutically acceptable acid addition salts thereof useful as antihypertensive agents” (American Home Products Corporation, priority 1985, dated 1986)

Legend:
[1] = test system: isolated paced intact rabbit atria; experiment: negative inotropic (cardiac depressant) effect in isolated paced intact rabbit atria; format: cell-based; conditions: Oryctolagus cuniculus, 3 Hz, cumulative 10^-9 M to 10^-5 M, read-out: IC25 (concentration which produces 25% inhibition of isometric force)
Experimental: The potential for detrimental cardiac depressant (negative inotropic) effects of the compounds of this invention was assessed in isolated paced intact rabbit atria. Left and right atria (with nodal tissue excised) were suspended vertically in a jacketed (30° C.) organ bath containing 50 ml of PSS and aerated with 95% O2 /5% CO2. Muscles (N=5-9/compound) were stimulated at a frequency of 3 Hz with a WPI stimulator for a 60 minute equilibration period. Changes in isometric force were recorded as described for the aortic smooth muscle experiments,supra. Following equilibration, the test compound (or as a control, the ethanol vehicle) was added to the organ bath in a cumulative manner from doses ranging from 10^-9 M to 10^-5 M (10^-5 M was the maximum dose which could be attained due to the depressant effect of ethanol) and effects on developed isometric force were determined.
(§1) The following examples illustrate the preparation of a representative number of compounds of this invention. After each example, and Ca^+2 antagonist activity of the compound is presented in terms of percent relaxation of aortic tissue (P.R.) at 10^-5 M concentration. […] Inhibition of superprecipitation (Antag. of Actin-Myosin interaction) is expressed as percent inhibition (mean±standard error of the mean for at least 3 separate experiments) at a compound concentration. In the same manner, inhibition of myosin light chain phosphorylation (Antag. of MLCP) is expressed as a percent inhibition at a compound concentration. Similarly, the antihypertensive activity is reported in terms of millimeters mercury (mmHg) systolic blood pressure (B.P.) reduction at the stated time post 50 mg/kg oral dosing or other dosing as indicated.

[2] = test system: arterial actin-myosin interactions; experiment: inhibition of superprecipitation (antagonism of arterial actin-myosin interaction); format: biochemical; conditions: six minute time-point, mean±SEM
Experimental: (§2) The data reported herein was obtained at a six minute time-point rather than the 1.5, 5 and 12 minute time points indicated in the superprecipitation assay of the Silver et al. paper.
as §1

[3] = test system: Ca^+2 -calmodulin dependent myosin light chain phosphorylation; experiment: inhibition of Ca^+2-calmodulin dependent myosin light chain phosphorylation (MLCP); format: biochemical
Experimental: as §2, §1

[4] = test system: spontaneously hypertensive rats; experiment: decrease in systolic blood pressure of spontaneously hypertensive rats; format: in vivo, rat

| Compound | IC25 [1] [nM] | inhibition of superprecipitation (Antag. of Actin-Myosin) ([2]; 25 μM) [%] | inhibition of superprecipitation (Antag. of Actin-Myosin) ([2]; 50 μM) [%] | inhibition of superprecipitation (Antag. of Actin-Myosin) ([2]; 100 μM) [%] | inhibition of myosin light chain phosphorylation (Antag. of MLCP) ([3]; 25 μM) [%] | inhibition of myosin light chain phosphorylation (Antag. of MLCP) ([3]; 50 μM) [%] | inhibition of myosin light chain phosphorylation (Antag. of MLCP) ([3]; 100 μM) [%] | systolic blood pressure (B.P.) reduction ([4]; 5 mg/kg, 1.5 hours) [mmHg] | systolic blood pressure (B.P.) reduction ([4]; 5 mg/kg, 4 hours) [mmHg] | systolic blood pressure (B.P.) reduction ([4]; 10 mg/kg, 1.5 hours) [mmHg] | systolic blood pressure (B.P.) reduction ([4]; 10 mg/kg, 4 hours) [mmHg] | systolic blood pressure (B.P.) reduction ([4]; 25 mg/kg, 1.5 hours) [mmHg] | systolic blood pressure (B.P.) reduction ([4]; 25 mg/kg, 4 hours) [mmHg] | inhibition of superprecipitation (Antag. of Actin-Myosin) ([2]; 10 μM) [%] | inhibition of myosin light chain phosphorylation (Antag. of MLCP) ([3]; 10 μM) [%] |
| --- | --- | --- | --- | --- | --- | --- | --- | --- | --- | --- | --- | --- | --- | --- | --- |
| COC(COC(=O)C1=C(C)NC2=C(C(=O)CNC2)C1c1c(F)c(F)c(F)c(F)c1F)c1ccccc1 (stereo not shown) [Example 5, 1,4,5,6,7,8-Hexahydro-2-methyl-5-oxo-4-(pentafluorophenyl)-1,7-naphthryridine-3-carboxylic acid 2-methoxy-2-phenylethyl ester] | 1000 | 20±5 | 50±5 | 75±4 | 21±3 | 48±2 | 70±3 | -44 | -38 | -41 | -68 | -60 | -72 | – | – |
| CO[C@H](COC(=O)C1=C(C)NC2=C(C(=O)CNC2)C1c1c(F)c(F)c(F)c(F)c1F)c1ccccc1 (stereo partly drawn) [Example 7, 1,4,5,6,7,8-Hexahydro-2-methyl-5-oxo-4-(pentafluorophenyl)-1,7-naphthyridine-3-carboxylic acid (S)-2-methoxy-2-phenylethyl ester] | 6500 | – | 67 | 80 | – | 59 | 74 | – | – | -51 | -54 | – | – | – | – |
| CC1=C(C(=O)OCCOc2cccc(Cl)c2Cl)C(c2c(F)c(F)c(F)c(F)c2F)C2=C(CNCC2=O)N1 (stereo not shown) [Example 22, 1,4,5,6,7,8-Hexahydro-2-methyl-5-oxo-4-(pentafluorophenyl)-1,7-naphthyridine-3-carboxylic acid 2-(2,3-dichlorophenoxy)ethyl ester] | 1000 | 54±3 | 75±4 | 78±1 | 54±2.5 | 73±1.5 | 74±2 | – | – | – | – | -37 | -52 | 30±3 | 25 |
